Test results from patent EP1151753B1, “PREVENTIVE AND THERAPEUTIC AGENTS FOR ARTERIOSCLEROSIS” (CCI CORPORATION, priority 1999, dated 2000).

Tests used:
[1] = Biochemical test of blood and measurement of body weight, cholesterol-loaded rabbit model; assay type: in vivo, New Zealand White (NZW) type rabbits; details: cholesterol-loaded NZW rabbits
Procedure: (§1) Now, the pharmacogenic effect of the agent of this invention for preventing and curing arteriosclerosis will be described specifically below with reference to a pharmacological test using high cholesterol-loaded rabbits and the WHHL (Watanabe heritable hyperlipidemic) rabbits forming a model of the familial high-cholesterol blood disease. The data were wholly reported by the average ± standard error (SE) and the significant differences among separate groups were determined by the Student's t-test. The risk factor, p < 0.05, was rated as forming a significance of difference.
In the test, female and male New Zealand White (NZW) type rabbits (SPF: Kitayama Labels K.K.) which were seven weeks old at the time of arrival at the laboratory were subjected to quarantine and two weeks' domestication and visually inspected as to the general condition and, after the absence of abnormality was confirmed, put to use. The body weights at the time of starting administration (at the age of nine weeks) were in the range of 1.8 - 2.2 kg in the case of male rabbits and in the range of 1.6 - 2.0 kg in the case of female rabbits. Throughout the entire duration of the test, the animals were raised as accommodated one each in hanger cages of aluminum installed on a stainless steel rack inside a clean feeding chamber set at a temperature in the range of 20 - 26°, a relative humidity in the range of 40 - 70%, a number of ventilations in the range of 10 - 20 turns/hour, and an illumination time within the range of 12 hours (7.00 - 19:00). They were fed on a commercially available radioactively sterilized solid feed (a product containing 1% of cholesterol, made by Oriental Kobo K.K. and sold under the product code of "RC4") and they were left freely drinking the tap water delivered by an automatic water supplying device.
The dosage of TMG was set at 800 mg/head/day. The TMG was solved in reagent grade ethanol. The produced solution was sprayed on the 1% cholesterol-containing feed and the wet feed was left drying in the air. A mixed feed was prepared so as to contain 800 mg of TMG per 100 g of the feed. The mixed feed was given to the rabbits every morning at a rate of 100 g/day per head for 12 weeks for the sake of attaining oral consumption of the TMG. The feed for the control group was obtained by spraying ethanol alone on a feed containing 1% cholesterol and air-drying the wet feed. It was given to the rabbits of the control group at a rate of 100 g/day per heat for 12 weeks.
A control group and a TMG-administration group were formed; the control group of a total of six heads composed of three males and three females and the TMG-administration group of a total of eight heads composed of four males and four females. These animals were apportioned to the two groups randomly and nevertheless elaborately so as to avoid confusion of the children of one brood in either group to the fullest possible extent and equalize as much as permissible the average body weights and the average total cholesterol numbers in blood serum of the two groups with the body weights and the total cholesterol numbers found at the time of completion of the domestication.
About 6 ml of blood was taken from the heart or the auricular artery of a rabbit experiencing 12 hours' fast prior to the start of the administration, within 4 and 8 weeks of undergoing administration, and on the final day of administration (12th week). The blood was centrifuged to separate blood serum and the blood serum was analyzed for the items shown in Table 1 by the use of an automatic analyzer (made by Hitachi. Ltd. And sold under the product code of "736-20"). The body weight of each rabbit was measured at the rate of once a week throughout the entire duration of the administration.

[2] = Biochemical test of blood and measurement of body weight, WHHL rabbit model; assay type: in vivo, WHHL type rabbits; details: WHHL rabbits
Procedure: as §1
1. Animal used and feeding conditions In the test, female and male WHHL type rabbits (SPF: Kitayama Labels K.K.) which were eight weeks old at the time of arrival at the laboratory were subjected to quarantine and domestication and visually inspected as to the general condition and, after the absence of abnormality was confirmed, put to use. The body weights at the time of starting administration (at the age of nine weeks) were in the range of 1.5 - 1.9 kg in the case of male rabbits and in the range of 1.4 - 1.8 kg in the case of female rabbits. Throughout the entire duration of the test, the animals were raised as accommodated one each in hanger cages of aluminum installed on a stainless steel rack inside a clean feeding chamber set at a temperature in the range of 20 - 26°, a relative humidity in the range of 40 - 70%, a number of ventilations in the range of 10 - 20 turns/hour, and an illumination time within the range of 12 hours (7.00 - 19:00). They were fed on a commercially available radioactively sterilized solid feed (made by Oriental Kobo K.K. and sold under the product code of "RC4") and they were left freely drinking the tap water delivered by an automatic water supplying device. 2. Setting dosage and method of administration The dosage of TMG was set at 800 mg/head/day. The TMG was solved in reagent grade ethanol. The produced solution was sprayed on the feed and the wet feed was left drying in the air. A mixed feed was prepared so as to contain 800 mg of TMG per 100 g of the feed. The mixed feed was given to the rabbits every morning at a rate of 100 g/day per head for 27 weeks for the sake of attaining oral consumption of the TMG. The feed for the control group was obtained by spraying ethanol alone on a feed and air-drying the wet feed. It was given to the rabbits of the control group at a rate of 100 g/day per head for 27 weeks. 3. Formation of groups and number of animals A control group and a TMG-administration group were formed; each group consistingof threemales and three females, namely a total of six rabbits. These animals were apportioned to the two groups randomly and nevertheless elaborately so as to avoid confusion of the children of one brood in either group to the fullest possible extent and equalize as much as permissible the average body weights and the average total cholesterol numbers in blood serum of the two groups with the body weights and the total cholesterol numbers found at the time of completion of the domestication. 4. […] The blood was centrifuged to separate blood serum and the blood serum was analyzed for the items shown in Table 5 by the use of an automatic analyzer (made by Hitachi. Ltd. and sold under the product code of "736-20"). The body weight of each rabbit was measured at the rate of once a week throughout the entire duration of the administration.

[3] = blood serum, TMG 800 mg/head/day in feed, 12th week of administration, average ± SE
[4] = TMG 800 mg/head/day for 12 weeks
[5] = TMG 800 mg/head/day for 27 weeks
[6] = blood serum, TMG 800 mg/head/day in feed, average ± SE

## Cc1c(C)c2c(c(C)c1O)CCC(C)(C[C@H]1O[C@H](CO)[C@@H](O)[C@H](O)[C@H]1O)O2 (stereo partly drawn) [TMG, 2-(α-D-glucopyranosyl)methyl-2,5,7,8-tetramethyl chroman-6-ol]
[1]; [3]
  ALB: 2.3 ± 0.1 g/dL
  ALP: 174 ± 15 mU/ml
  ChE: 0.35 ± 0.06 U/ml
  GOT: 19.7±2.2 mU/ml
  GPT: 72.9 ± 9.1 mU/ml
  LDH: 147 ± 31 mU/ml
  PL: 851 ± 42 mg/dL
  T-CHO: 2628 ± 148 mg/dL
  TG: 250 ± 76 mg/dL
[1]; [4]
  activity of lowering the blood serum lipids (T-CHO, TG, PL, LDL-CHO): no activity
  biochemical test of blood: no sign of abnormality
[1]; TMG 800 mg/head/day in feed, 12th week of administration, average ± SE
  Body weight: 2.89 ± 0.11 kg
[1]; TMG 800 mg/head/day, versus control group
  rise of the GOT, an index of the development of hepatopathy: significantly repressing the injury
[2]; [5]
  activity of lowering the blood serum lipids (T-CHO, TG, PL, LDL-CHO): no activity
  biochemical test of blood: no sign of abnormality
[2]; TMG 800 mg/head/day in feed, average ± SE
  Body weight: 2.89 ± 0.11 kg
[2]; [6]
  ALB: 2.4 ± 0.1 g/dL
  ALP: 87± 5 mU/ml
  ChE: 0.19 ± 0.05 U/ml
  GOT: 26.0 ± 11.1 mU/ml
  GPT: 59.7 ± 12.3 mU/ml
  LDH: 97 ± 4 mU/ml
  PL: 459 ± 52 mg/dL
  T-CHO: 934 ± 49 mg/dL
  TG: 169 ± 23 mg/dL
